Data from patent EP0535336A2, “MK protein as cell growth inhibitor” (AMERICAN CYANAMID COMPANY, priority 1991, dated 1993).

Columns and labels:
[1] = system: human embryonal carcinoma (EC) cell line NT2/D1; test: Retinoic acid induction of NT2/D1 cells (differentiation, northern analysis); type: cell-based; settings: nine days of RA, 0.01 to 10 µM, normalized to β-actin probe
Experimental: The human embryonal carcinoma (EC) cell line NT2/D1 can be induced to differentiate at concentrations of retinoic acid (RA) varying from 0.01 to 10 µM, with the proportion of differentiating EC cells ranging from 50% at […] RA to greater than 99% at […] RA. The expression of MK and HBNF during differentiation of NT2/D1 is studied, at concentrations ranging from 0.01 to 10 µM. After nine days of exposure to RA, total RNA was extracted from cells and probed for gene expression by northern analysis. Expression of both gene follows a similar pattern. Levels of mRNA expression remain at a steady background level. When RNA hybridization signals are normalized to a control β-actin probe, the maximum increases are calculated to be 6-fold for HBNF and 11-fold for MK. […] In this cell line, MK gene expression is induced 8-10 fold above background.
The human embryonal carcinoma cell line Nt2/D1 is grown. For retinoic acid induction, cells are grown and resuspended in DMEM medium containing 10% bovine calf serum and resuspended in DMEM medium containing 10% bovine calf serum (Hyclone Laboratories, Inc.) at a density of 5 x 10⁵ cells per 100 mm dish. Varying concentrations of all-trans retinoic acid in dimethyl sulfoxide (10 µl) is added and cells are incubated for 9 days. Fresh medium and RA are added at days 4 and 8. […]

mouse EC cell line, HM-1 = settings: retinoic acid induction; cited from earlier work

## CC1=C(/C=C/C(C)=C/C=C/C(C)=C/C(=O)O)C(C)(C)CCC1 [RA, all-trans retinoic acid]
[1]
  maximum increase of HBNF mRNA expression: 6 fold
  maximum increase of MK mRNA expression: 11 fold
Mouse EC cell line, HM-1
  MK gene expression induced above background: 8-10 fold
